Our source for the Ki values is PMC4066452 (Archives of biochemistry and biophysics, 2014).

In the experiment the target is MtACS (Mycobacterium tuberculosis acetyl-CoA synthetase) (Mycobacterium tuberculosis, UniProt P9WQD1). Kind of experiment: biochemical.
MtACS (Mycobacterium tuberculosis acetyl-CoA synthetase), sequence (P9WQD1 2-651): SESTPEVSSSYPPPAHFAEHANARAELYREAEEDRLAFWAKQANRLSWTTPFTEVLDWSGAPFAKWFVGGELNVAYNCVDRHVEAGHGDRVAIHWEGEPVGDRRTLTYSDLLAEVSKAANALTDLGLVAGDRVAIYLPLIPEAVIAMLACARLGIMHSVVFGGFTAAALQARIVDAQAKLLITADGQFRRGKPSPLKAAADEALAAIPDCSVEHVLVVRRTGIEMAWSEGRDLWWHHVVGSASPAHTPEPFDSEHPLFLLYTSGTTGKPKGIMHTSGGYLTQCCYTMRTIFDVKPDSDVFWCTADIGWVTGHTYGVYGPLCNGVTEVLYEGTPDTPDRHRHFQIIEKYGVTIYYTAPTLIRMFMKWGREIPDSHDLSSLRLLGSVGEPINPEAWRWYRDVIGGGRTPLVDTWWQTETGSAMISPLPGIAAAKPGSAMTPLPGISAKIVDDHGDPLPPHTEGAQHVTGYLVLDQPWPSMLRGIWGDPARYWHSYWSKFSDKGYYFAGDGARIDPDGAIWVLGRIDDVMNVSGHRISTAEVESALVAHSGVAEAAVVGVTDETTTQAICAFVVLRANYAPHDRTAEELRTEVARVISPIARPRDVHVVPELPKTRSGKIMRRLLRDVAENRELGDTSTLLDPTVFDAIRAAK

On to `Nc1ncnc2c1ncn2[C@@H]1O[C@H](COP(=O)(O)CP(=O)(O)OP(=O)(O)O)[C@@H](O)[C@H]1O` [AMPCPP], for which the Ki worked out at 5 ± 0.8 mM.

For orientation: Ki means the dissociation constant of the complex between target and ligand, obtained from inhibition or displacement. A higher Ki goes with a looser hold on the target.
